Measured values as given in patent US20230141603A1, “BENZODIAZEPINE DERIVATIVES AS GABA A GAMMA1 PAM” (Hoffmann-La Roche Inc., priority 2021, published 2023).

Target: T1, h-GABAA α2β2γ1 (Homo sapiens, UniProt P47869+Q8N1C3)
T1 sequence (P47869 29-451): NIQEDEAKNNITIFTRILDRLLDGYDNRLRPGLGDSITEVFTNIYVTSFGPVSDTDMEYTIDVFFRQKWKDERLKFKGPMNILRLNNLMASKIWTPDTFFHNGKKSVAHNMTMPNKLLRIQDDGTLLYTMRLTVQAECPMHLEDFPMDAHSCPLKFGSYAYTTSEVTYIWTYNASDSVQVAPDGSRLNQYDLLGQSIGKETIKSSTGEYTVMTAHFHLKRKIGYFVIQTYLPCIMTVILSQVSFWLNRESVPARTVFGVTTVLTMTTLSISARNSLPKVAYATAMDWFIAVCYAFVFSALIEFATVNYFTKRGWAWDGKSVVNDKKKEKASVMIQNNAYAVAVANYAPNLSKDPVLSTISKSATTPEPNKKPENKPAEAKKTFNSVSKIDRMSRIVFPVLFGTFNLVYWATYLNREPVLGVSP
T1 sequence (P47870 25-512 partner limits assumed): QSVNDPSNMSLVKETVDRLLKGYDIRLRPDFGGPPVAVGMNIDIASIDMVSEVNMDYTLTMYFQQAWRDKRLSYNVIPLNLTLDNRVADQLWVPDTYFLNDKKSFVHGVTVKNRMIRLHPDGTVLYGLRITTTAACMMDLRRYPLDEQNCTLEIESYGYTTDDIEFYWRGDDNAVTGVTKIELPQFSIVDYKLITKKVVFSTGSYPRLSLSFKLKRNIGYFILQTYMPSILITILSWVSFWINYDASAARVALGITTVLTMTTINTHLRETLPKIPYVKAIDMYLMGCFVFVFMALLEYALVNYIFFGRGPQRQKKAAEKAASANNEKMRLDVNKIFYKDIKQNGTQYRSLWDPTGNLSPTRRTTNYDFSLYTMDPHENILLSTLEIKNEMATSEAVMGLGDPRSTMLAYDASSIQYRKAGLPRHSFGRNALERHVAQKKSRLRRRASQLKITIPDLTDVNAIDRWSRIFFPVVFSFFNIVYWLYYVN
T1 sequence (Q8N1C3 36-465): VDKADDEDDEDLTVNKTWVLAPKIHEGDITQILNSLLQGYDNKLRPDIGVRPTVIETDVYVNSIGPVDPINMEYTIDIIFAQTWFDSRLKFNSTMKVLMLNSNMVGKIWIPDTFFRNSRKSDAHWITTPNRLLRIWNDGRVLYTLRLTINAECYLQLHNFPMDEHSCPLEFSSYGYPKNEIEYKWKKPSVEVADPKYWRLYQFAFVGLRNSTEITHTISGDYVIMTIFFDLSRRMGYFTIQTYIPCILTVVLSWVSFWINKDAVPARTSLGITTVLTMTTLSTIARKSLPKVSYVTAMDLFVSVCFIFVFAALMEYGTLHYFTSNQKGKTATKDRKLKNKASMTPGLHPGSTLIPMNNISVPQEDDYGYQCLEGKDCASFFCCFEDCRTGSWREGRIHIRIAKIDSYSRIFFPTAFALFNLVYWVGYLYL
Experiment: Radioligand binding assay, [3H]RO7239181 competition, HEK293F membranes
Parameters: signal peptide of human GABAA α5 subunit (Met1 to Ser31), replacing the α2 signal peptide (N); expressed in transfected cells; host or cells: HEK293F cells (ThermoFisher R79007), membranes
Protocol: The affinity of compounds at GABAA γ1 subunit-containing receptors was measured by competition for [^3H]RO7239181 (67.3 Ci/mmol; Roche) binding to membranes from HEK293F cells (ThermoFisher R79007) expressing human (transiently transfected) receptors of composition […], α2β2γ1, α1β2γ1.
Harvested pellets from HEK293F cells expressing the different GABAA receptor subtypes were resuspended in Mannitol Buffer pH 7.2-7.4 (Mannitol 0.29M, Triethylamine 10 mM, Acetic acid 10 mM, EDTA 1 mM plus protease inhibitors (20 tablets Complete, Roche Diagnostics Cat. No. 05 056 489 001 per liter)), washed two times and then resuspended at 1:10 to 1:15 dilution in the same buffer. Cell disruption was performed by stirring the suspension in a Parr vessel #4637 at 435 psi for 15 minutes, and then the suspensions were centrifuged at 1000×g for 15 minutes at 4° C. (Beckman Avanti J-HC; rotor JS-4.2). The supernatant (S1) was transferred in a 21 Schott flask and the pellet (P1) was resuspended with Mannitol Buffer up to 175 ml. The resuspended pellet was transferred into a 250 ml Corning centrifugal beaker and centrifuged at 1500×g for 10 minutes at 4° C. (Beckman Avanti J-HC; rotor JS-4.2). The supernatant (S1) was then transferred in the 21 Schott flask and the pellet was discarded. The supernatants (S1) were centrifuged in 500 ml Beckman polypropylene centrifugal beaker at 15′000×g for 30 minutes at 4° C. (Beckman Avanti J-20 XP; rotor JLA-10.500). The pellet (P2) was resuspended with Mannitol Buffer 1:1 and frozen at −80° C. The supernatant (S2) was centrifuged in 100 ml Beckman polypropylene centrifugal tubes at 48000×g for 50 minutes at 4° C. (Beckman Avanti J-20 XP; rotor JA-18). The supernatant (S3) was discarded and the pellet (P3) was resuspended with 1:1 Mannitol Buffer. The P2 and P3 protein concentration was determined with the BIORAD Standard assay method with bovine serum albumin as standard and measured on the NANO-Drop 1000. The membrane suspension was aliquots (500 μl per tube) and stored at −80° C. until required. Membrane homogenates were resuspended and polytronised (Polytron PT1200E Kinematica AG) in Potassium Phosphate 10 mM, KCl 100 mM binding buffer at pH 7.4 to a final assay concentration determined with a previous experiment.
Assays were incubated to equilibrium for 1 hour at 4° C. and then, membranes were filtered onto unifilter (96-well white microplate with bonded GF/C filters preincubated 20-50 minutes in 0.3% Polyethylenimine) with a Filtermate 196 harvester (Packard BioScience) and washed 4 times with cold Potassium Phosphate 10 mM pH 7.4, KCl 100 mM binding buffer. After drying, filter-retained radioactivity was detected by liquid scintillation counting. Ki values were calculated using Excel-Fit (Microsoft) and are the means of two determinations.

| Structure (SMILES) | Ki [nM] |
| --- | --- |
| Fc1cccc(F)c1C1=NCc2nncn2-c2ccc(I)c(Cl)c21 [Example 34, 7-chloro-6-(2,6-difluorophenyl)-8-iodo-4H-[1,2,4]triazolo[4,3-a][1,4]benzodiazepine] | 10.1 |
| Fc1cccc(F)c1C1=NCc2nncn2-c2ccc(Br)c(Cl)c21 [Example 7, 8-bromo-7-chloro-6-(2,6-difluorophenyl)-4H-[1,2,4]triazolo[4,3-a][1,4]benzodiazepine] | 8.5 |
| Fc1cccnc1C1=NCc2nnc(-c3cccnn3)n2-c2ccc(C(F)(F)F)c(Cl)c21 [Example 72, 7-chloro-6-(3-fluoro-2-pyridyl)-1-pyridazin-3-yl-8-(trifluoromethyl)-4H-[1,2,4]triazolo[4,3-a][1,4]benzodiazepine] | 30.1 |
| Fc1cccnc1C1=NCc2nncn2-c2ccc(Br)c(Cl)c21 [Example 29, 8-bromo-7-chloro-6-(3-fluoro-2-pyridyl)-4H-[1,2,4]triazolo[4,3-a][1,4]benzodiazepine] | 47.4 |
| Fc1cccnc1C1=NCc2nnc(C3CC3)n2-c2ccc(Br)c(Cl)c21 [Example 77, 8-bromo-7-chloro-1-cyclopropyl-6-(3-fluoro-2-pyridyl)-4H-[1,2,4]triazolo[4,3-a][1,4]benzodiazepine] | 19.6 |
| Fc1cccnc1C1=NCc2nnc(-c3cccnn3)n2-c2ccc(Br)c(Cl)c21 [Example 45, 8-bromo-7-chloro-6-(3-fluoro-2-pyridyl)-1-pyridazin-3-yl-4H-[1,2,4]triazolo[4,3-a][1,4]benzodiazepine] | 15.8 |
| CC(F)(F)c1ccc2c(c1Cl)C(c1c(F)cccc1F)=NCc1nncn1-2 [Example 21, 7-chloro-8-(1,1-difluoroethyl)-6-(2,6-difluorophenyl)-4H-[1,2,4]triazolo[4,3-a][1,4]benzodiazepine] | 52 |
| OCc1nnc2n1-c1ccc(Br)c(Cl)c1C(c1c(F)cccc1F)=NC2 [Example 33, [8-bromo-7-chloro-6-(2,6-difluorophenyl)-4H-[1,2,4]triazolo[4,3-a][1,4]benzodiazepin-1-yl]methanol] | 12.7 |
| Cc1nnc2n1-c1ccc(Cl)c(Cl)c1C(c1ncccc1F)=NC2 [Example 71, 7,8-dichloro-6-(3-fluoro-2-pyridyl)-1-methyl-4H-[1,2,4]triazolo[4,3-a][1,4]benzodiazepine] | 37.6 |
| Clc1cccnc1C1=NCc2nnc(-c3cccnn3)n2-c2ccc(Br)c(Cl)c21 [Example 47, 8-bromo-7-chloro-6-(3-chloro-2-pyridyl)-1-pyridazin-3-yl-4H-[1,2,4]triazolo[4,3-a][1,4]benzodiazepine] | 15.9 |
| Fc1ccccc1C1=NCc2nnc(-c3cccnn3)n2-c2ccc(Br)c(Cl)c21 [Example 3, 8-bromo-7-chloro-6-(2-fluorophenyl)-1-pyridazin-3-yl-4H-[1,2,4]triazolo[4,3-a][1,4]benzodiazepine] | 8.8 |
| COc1ccc2c(c1Cl)C(c1c(F)cccc1F)=NCc1nnc(-c3ccncn3)n1-2 [Example 61, 7-chloro-6-(2,6-difluorophenyl)-8-methoxy-1-pyrimidin-4-yl-4H-[1,2,4]triazolo[4,3-a][1,4]benzodiazepine] | 77.6 |
| COc1ccc2c(c1Cl)C(c1c(F)cccc1F)=NCc1nnc(C3CC3)n1-2 [Example 79, 7-chloro-1-cyclopropyl-6-(2,6-difluorophenyl)-8-methoxy-4H-[1,2,4]triazolo[4,3-a][1,4]benzodiazepine] | 51.2 |
| Cn1cc(-c2nnc3n2-c2ccc(C(F)(F)F)c(Cl)c2C(c2ncccc2F)=NC3)cn1 [Example 70, 7-chloro-6-(3-fluoro-2-pyridyl)-1-(1-methylpyrazol-4-yl)-8-(trifluoromethyl)-4H-[1,2,4]triazolo[4,3-a][1,4]benzodiazepine] | 41.4 |
| Cc1ccc2c(c1Cl)C(c1c(F)cccc1F)=NCc1n[nH]c(=O)n1-2 [Example 16, 7-chloro-6-(2,6-difluorophenyl)-8-methyl-2,4-dihydro-[1,2,4]triazolo[4,3-a][1,4]benzodiazepin-1-one] | 26.5 |
| Cc1nnc2n1-c1ccc(Br)c(Cl)c1C(c1ncccc1F)=NC2 [Example 24, 8-bromo-7-chloro-6-(3-fluoro-2-pyridyl)-1-methyl-4H-[1,2,4]triazolo[4,3-a][1,4]benzodiazepine] | 24.3 |
| Fc1ccccc1C1=NCc2nncn2-c2ccc(Br)c(Cl)c21 [Example 8, 8-bromo-7-chloro-6-(2-fluorophenyl)-4H-[1,2,4]triazolo[4,3-a][1,4]benzodiazepine] | 47.6 |
| Cc1ccc2c(c1Cl)C(c1c(F)cccc1F)=NCc1nnc(C)n1-2 [Example 20, 7-chloro-6-(2,6-difluorophenyl)-1,8-dimethyl-4H-[1,2,4]triazolo[4,3-a][1,4]benzodiazepine] | 23.8 |
| Fc1cccnc1C1=NCc2nnc(-c3ccncn3)n2-c2ccc(Br)c(Cl)c21 [Example 46, 8-bromo-7-chloro-6-(3-fluoro-2-pyridyl)-1-pyrimidin-4-yl-4H-[1,2,4]triazolo[4,3-a][1,4]benzodiazepine] | 25.3 |
| Cc1ncc2n1-c1ccc(Cl)cc1C(c1ccccc1F)=NC2 [Midazolam, reference compound] | 738 |
| Cl.NCc1nnc2n1-c1ccc(Br)c(Cl)c1C(c1c(F)cccc1F)=NC2 [Example 36, [8-bromo-7-chloro-6-(2,6-difluorophenyl)-4H-[1,2,4]triazolo[4,3-a][1,4]benzodiazepin-1-yl]methanamine hydrochloride] | 8.5 |
| Fc1cccc(F)c1C1=NCc2nncn2-c2ccc(C(F)F)c(Cl)c21 [Example 23, 7-chloro-8-(difluoromethyl)-6-(2,6-difluorophenyl)-4H-[1,2,4]triazolo[4,3-a][1,4]benzodiazepine] | 54.5 |
| COc1ccc2c(c1Cl)C(c1c(F)cccc1F)=NCc1nnc(-c3cccnn3)n1-2 [Example 57, 7-chloro-6-(2,6-difluorophenyl)-8-methoxy-1-pyridazin-3-yl-4H-[1,2,4]triazolo[4,3-a][1,4]benzodiazepine] | 57.9 |
